Patent publication US20150322038A1, “PYRAZINE DERIVATIVES AND THEIR USE IN THE TREATMENT OF NEUROLOGICAL DISORDERS” (NOVARTIS AG, priority 2009, published 2015)
Counter-ions that a name gives are not always drawn.

Tests used:
[1] = tested on: cellular release of amyloid peptide 1-40; test: Test 4: Inhibition of cellular release of amyloid peptide 1-40; format: cell-based; details: Cricetulus griseus, Chinese hamster ovary cells transfected with the gene for amyloid precursor protein, 24 hours with compound, amyloid peptide 1-40 in supernatant, read-out: Bace IC50
Procedure: Test 4: Inhibition of Cellular Release of Amyloid Peptide 1-40
Chinese hamster ovary cells are transfected with the gene for amyloid precursor protein. The cells are plated at a density of 8000 cells/well into 96-well microtiter plates and cultivated for 24 hours in DMEM cell culture medium containing 10% FCS. The test compound is added to the cells at various concentrations, and the cells are cultivated for 24 hours in the presence of the test compound. The supernatants are collected, and the concentration of amyloid peptide 1-40 is determined using state of the art immunoassay techniques, for example sandwich ELISA, homogenous time-resolved fluorescence (HTRF) immunoassay, or electro-chemiluminescence immunoassay. The potency of the compound is calculated from the percentage of inhibition of amyloid peptide release as a function of the test compound concentration.

human BACE-1 = human BACE-1 (Homo sapiens, UniProt P56817); test: Test 1: Inhibition of human BACE-1; format: biochemical; details: recombinant BACE-1, pH 4.5, fluorescence-quenched APP-derived peptide substrate
human BACE-1, sequence (P56817 46-457 limits assumed): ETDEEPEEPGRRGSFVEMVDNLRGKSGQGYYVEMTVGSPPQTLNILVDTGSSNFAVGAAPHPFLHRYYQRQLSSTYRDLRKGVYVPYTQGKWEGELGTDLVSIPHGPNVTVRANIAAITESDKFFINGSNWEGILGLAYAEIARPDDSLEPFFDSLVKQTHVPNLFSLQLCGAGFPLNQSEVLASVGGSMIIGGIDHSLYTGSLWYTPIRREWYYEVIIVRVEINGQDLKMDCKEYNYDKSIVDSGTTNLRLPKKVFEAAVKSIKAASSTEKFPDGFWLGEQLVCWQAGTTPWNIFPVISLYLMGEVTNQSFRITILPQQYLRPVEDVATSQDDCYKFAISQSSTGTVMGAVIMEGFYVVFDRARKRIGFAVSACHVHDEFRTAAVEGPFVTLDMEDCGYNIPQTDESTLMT
Procedure: Test 1: Inhibition of Human BACE-1
IC50 values are calculated from percentage of inhibition of BACE-1 activity as a function of the test compound concentration.

IC50 [1] [nM] | IC50 (human BACE-1) [nM] | Structure (SMILES)
980 | 1300 | CCC1C(N)=NC(C)(c2cccc(NC(=O)c3ccc(Br)cn3)c2)C(=O)N1C (mixture of isomers) [Example 15, 5-Bromo-pyridine-2-carboxylic acid [3-(6-amino-5-ethyl-2,4-dimethyl-3-oxo-2,3,4,5-tetrahydro-pyrazin-2-yl)-phenyl]-amide]
12 | 22 | Cc1cc(OC(F)F)cnc1C(=O)Nc1ccc(F)c([C@]2(C(F)F)CNCC(N)=N2)c1 (single isomer, unassigned) [Example 27]
5.7 | 20 | COc1cnc(C(=O)Nc2ccc(F)c([C@]3(C(F)F)CNCC(N)=N3)c2)c(N)n1 (single isomer, unassigned) [Example 28]
3200 | 4100 | CN1CC(N)=NC(C)(c2cc(NC(=O)c3ccc(Br)cn3)ccc2F)C1=O (centres unmarked) [Example 1, 5-Bromo-pyridine-2-carboxylic acid [3-(6-amino-2,4-dimethyl-3-oxo-2,3,4,5-tetrahydro-pyrazin-2-yl)-4-fluoro-phenyl]-amide]
120 | 180 | CN1CC(N)=NC(C)(c2cc(NC(=O)c3ccc(Br)cn3)ccc2F)C1 (centres unmarked) [Example 2, 5-Bromo-pyridine-2-carboxylic acid [3-(6-amino-2,4-dimethyl-2,3,4,5-tetrahydro-pyrazin-2-yl)-4-fluoro-phenyl]-amide]
260 | 400 | CN1CC(N)=NC(C)(c2cccc(NC(=O)c3ccc(Br)cn3)c2)C1=O (centres unmarked) [Example 3, 5-Bromo-pyridine-2-carboxylic acid [3-(6-amino-2,4-dimethyl-3-oxo-2,3,4,5-tetrahydro-pyrazin-2-yl)-phenyl]-amide]
91 | 95 | CN1CC(C)(c2cc(NC(=O)c3ccc(Br)cn3)ccc2F)N=C(N)C1=O (centres unmarked) [Example 4, 5-Bromo-pyridine-2-carboxylic acid [3-(6-amino-2,4-dimethyl-5-oxo-2,3,4,5-tetrahydro-pyrazin-2-yl)-4-fluoro-phenyl]-amide hydrochloride]
190 | – | CN1CC(C)(c2cc(NC(=O)c3ccc(Cl)cn3)ccc2F)N=C(N)C1=O (centres unmarked) [Example 5, 5-Chloro-pyridine-2-carboxylic acid [3-(6-amino-2,4-dimethyl-5-oxo-2,3,4,5-tetrahydro-pyrazin-2-yl)-4-fluoro-phenyl]-amide hydrochloride]
59 | 51 | CCN1CC(C)(c2cc(NC(=O)c3ccc(Br)cn3)ccc2F)N=C(N)C1=O (centres unmarked) [Example 6, 5-Bromo-pyridine-2-carboxylic acid [3-(6-amino-4-ethyl-2-methyl-5-oxo-2,3,4,5-tetrahydro-pyrazin-2-yl)-4-fluoro-phenyl]-amide hydrochloride]
160 | 68 | CN1CC(C)(c2cc(NC(=O)c3ncc(Cl)cc3Cl)ccc2F)N=C(N)C1=O (centres unmarked) [Example 7, 3,5-Dichloro-pyridine-2-carboxylic acid [3-(6-amino-2,4-dimethyl-5-oxo-2,3,4,5-tetrahydro-pyrazin-2-yl)-4-fluoro-phenyl]-amide hydrochloride]
74 | 21 | CCN1CC(C)(c2cc(NC(=O)c3ncc(Cl)cc3Cl)ccc2F)N=C(N)C1=O (centres unmarked) [Example 8, 3,5-Dichloro-pyridine-2-carboxylic acid [3-(6-amino-4-ethyl-2-methyl-5-oxo-2,3,4,5-tetrahydro-pyrazin-2-yl)-4-fluoro-phenyl]-amide hydrochloride]
37 | 33 | CC(C)N1CC(C)(c2cc(NC(=O)c3ccc(Br)cn3)ccc2F)N=C(N)C1=O (centres unmarked) [Example 9, 5-Bromo-pyridine-2-carboxylic acid [3-(6-amino-4-isopropyl-2-methyl-5-oxo-2,3,4,5-tetrahydro-pyrazin-2-yl)-4-fluoro-phenyl]-amide hydrochloride]
74 | 34 | COCCN1CC(C)(c2cc(NC(=O)c3ncc(Cl)cc3Cl)ccc2F)N=C(N)C1=O (centres unmarked) [Example 10, 3,5-Dichloro-pyridine-2-carboxylic acid {3-[6-amino-4-(2-methoxy-ethyl)-2-methyl-5-oxo-2,3,4,5-tetrahydro-pyrazin-2-yl]-4-fluoro-phenyl}-amide hydrochloride]
40 | 20 | COCCN1CC(C)(c2cc(NC(=O)c3ccc(Br)cn3)ccc2F)N=C(N)C1=O (centres unmarked) [Example 11, 5-Bromo-pyridine-2-carboxylic acid {3-[6-amino-4-(2-methoxy-ethyl)-2-methyl-5-oxo-2,3,4,5-tetrahydro-pyrazin-2-yl]-4-fluoro-phenyl}-amide hydrochloride]
84 | 20 | Cn1cc(N2CC(C)(c3cc(NC(=O)c4ccc(Br)cn4)ccc3F)N=C(N)C2=O)cn1 (centres unmarked) [Example 12, 5-Bromo-pyridine-2-carboxylic acid {3-[6-amino-2-methyl-4-(1-methyl-1H-pyrazol-4-yl)-5-oxo-2,3,4,5-tetrahydro-pyrazin-2-yl]-4-fluoro-phenyl}-amide hydrochloride]
280 | 7 | CC1(c2cc(NC(=O)c3ccc(Br)cn3)ccc2F)CN(c2cccnc2)C(=O)C(N)=N1 (centres unmarked) [Example 13, 5-Bromo-pyridine-2-carboxylic acid [3-(6-amino-2-methyl-5-oxo-4-pyridin-3-yl-2,3,4,5-tetrahydro-pyrazin-2-yl)-4-fluoro-phenyl]-amide hydrochloride]
130 | 63 | CCN1CC(C)(c2cc(NC(=O)c3ccc(C#N)cn3)ccc2F)N=C(N)C1=O (centres unmarked) [Example 14, 5-Cyano-pyridine-2-carboxylic acid [3-(6-amino-4-ethyl-2-methyl-5-oxo-2,3,4,5-tetrahydro-pyrazin-2-yl)-4-fluoro-phenyl]-amide hydrochloride]
6.7 | 30 | NC1=NC(c2cc(NC(=O)c3ccc(Br)cn3)ccc2F)(C(F)F)CNC1 (centres unmarked) [Example 16, 5-Bromo-pyridine-2-carboxylic acid [3-(6-amino-2-difluoromethyl-2,3,4,5-tetrahydro-pyrazin-2-yl)-4-fluoro-phenyl]-amide]
74 | 28 | N#Cc1ccc(C(=O)Nc2ccc(F)c(C3(C(F)F)CNCC(N)=N3)c2)nc1 (centres unmarked) [Example 17, 5-Cyano-pyridine-2-carboxylic acid [3-(6-amino-2-difluoromethyl-2,3,4,5-tetrahydro-pyrazin-2-yl)-4-fluoro-phenyl]-amide]
61 | 21 | N#Cc1ccc(C(=O)Nc2ccc(F)c(C3(C(F)F)CNC(=O)C(N)=N3)c2)nc1 (centres unmarked) [Example 18, 5-Cyano-pyridine-2-carboxylic acid [3-(6-amino-2-difluoromethyl-5-oxo-2,3,4,5-tetrahydro-pyrazin-2-yl)-4-fluoro-phenyl]-amide]
15 | 22 | COC(=O)N1CC(N)=NC(c2cc(NC(=O)c3ccc(Br)cn3)ccc2F)(C(F)F)C1 (centres unmarked) [Example 19, 5-Amino-3-{5-[(5-bromo-pyridine-2-carbonyl)-amino]-2-fluoro-phenyl}-3-difluoromethyl-3,6-dihydro-2H-pyrazine-1-carboxylic acid methyl ester]
57 | 52 | COC(=O)N1CC(N)=NC(c2cc(NC(=O)c3ccc(C#N)cn3)ccc2F)(C(F)F)C1 (centres unmarked) [Example 20, 5-Amino-3-{5-[(5-cyano-pyridine-2-carbonyl)-amino]-2-fluoro-phenyl}-3-difluoromethyl-3,6-dihydro-2H-pyrazine-1-carboxylic acid methyl ester]
31 | 9 | CC(=O)N1CC(N)=NC(c2cc(NC(=O)c3ncc(Br)cc3C)ccc2F)(C(F)F)C1 (centres unmarked) [Example 21, 5-Bromo-3-methyl-pyridine-2-carboxylic acid [3-(4-acetyl-6-amino-2-difluoromethyl-2,3,4,5-tetrahydro-pyrazin-2-yl)-4-fluoro-phenyl]-amide]
21 | 5 | Cc1cc(Br)cnc1C(=O)Nc1ccc(F)c(C2(C(F)F)CN(C(=O)OCC(Cl)Cl)CC(N)=N2)c1 (centres unmarked) [Example 22, 5-Amino-3-{5-[(5-bromo-3-methyl-pyridine-2-carbonyl)-amino]-2-fluoro-phenyl}-3-difluoromethyl-3,6-dihydro-2H-pyrazine-1-carboxylic acid 2,2-dichloro-ethyl ester]
34 | 7 | COCC(=O)N1CC(N)=NC(c2cc(NC(=O)c3ncc(Br)cc3C)ccc2F)(C(F)F)C1 (centres unmarked) [Example 23, 5-Bromo-3-methyl-pyridine-2-carboxylic acid {3-[6-amino-2-difluoromethyl-4-(2-methoxy-acetyl)-2,3,4,5-tetrahydro-pyrazin-2-yl]-4-fluoro-phenyl}-amide]
28 | 11 | Cc1cc(Br)cnc1C(=O)Nc1ccc(F)c(C2(C(F)F)CN(C(=O)C3CC3)CC(N)=N2)c1 (centres unmarked) [Example 24, 5-Bromo-3-methyl-pyridine-2-carboxylic acid [3-(6-amino-4-cyclopropanecarbonyl-2-difluoromethyl-2,3,4,5-tetrahydro-pyrazin-2-yl)-4-fluoro-phenyl]-amide]
10 | 28 | Cc1cc(Br)cnc1C(=O)Nc1ccc(F)c(C2(C(F)F)CNCC(N)=N2)c1 (centres unmarked) [Example 25, 5-Bromo-3-methyl-pyridine-2-carboxylic acid [3-(6-amino-2-difluoromethyl-2,3,4,5-tetrahydro-pyrazin-2-yl)-4-fluoro-phenyl]-amide]
